Patent US20120058200A1, “PROCESS FOR THE PREPARATION OF LANTHANUM CARBONATE DIHYDRATE” (Natco Pharma Limited, priority 2009, published 2012)

What was measured:
[1] = Phosphate binding studies of various lanthanum carbonate hydrates; details: for % Phosphate removed: two-fold molar excess of lanthanum carbonate hydrate over phosphate; for Peak phosphate binding: in about 7 times (so in the source)
Method: To study the phosphate binding activity of lanthanum carbonate dihdyrate, other hydrates of lanthanum carbonate (monohydrate, tetrahydrate and hexahydrate) were prepared. • a) A stock solution of standard phosphate was prepared by dissolving 13.75 g of Na2HPO4 in 1 L deionised water after adjusting the pH to 3.0 with […]. • b) Above stock solution (5 ml) was diluted with 90 ml water adjusted the pH to 3.0 with conc. HCl and made up to 100 ml with water. • c) A two-fold molar excess of Lanthanum carbonate hydrate over phosphate was weighed accurately according to the molecular weight and added to solution b). • d) Sampling was carried out at different time intervals 1, 3, 5, 7, and 10 min. […] Peak phosphate binding exceeding 99% is achieved with the dihydrate in about 7 times whereas only 81% is achieved with the tetrahydrate.

[2] = room temperature

Structure (SMILES)	% Phosphate removed ([1]; 1 min, pH 3.0)	% Phosphate removed ([1]; 3 min, pH 3.0)	% Phosphate removed ([1]; 5 min, pH 3.0)	% Phosphate removed ([1]; 7 min, pH 3.0)	% Phosphate removed ([1]; 10 min, pH 3.0)	Phosphate binding speed ([1]; at all points (1-10 min), pH 3.0)	Peak phosphate binding ([1]; pH 3.0)	Performance in phosphate binding studies ([1]; over standard lanthanum carbonate tetrahydrate)	Stability [2]
O.O.O=C([O-])[O-].O=C([O-])[O-].O=C([O-])[O-].[La+3].[La+3] [Dihydrate, lanthanum carbonate dihydrate]	94.00%	93.00%	93.00%	99.45%	99.17%	relatively very fast	exceeding 99%	improved performance	stable
O.O.O.O.O.O.O=C([O-])[O-].O=C([O-])[O-].O=C([O-])[O-].[La+3].[La+3] [Hexahydrate]	57.10%	60.10%	79.73%	76.12%	81.15%	–	–	–	–
O.O=C([O-])[O-].O=C([O-])[O-].O=C([O-])[O-].[La+3].[La+3] [Monohydrate]	82.73%	90.05%	87.10%	91.72%	98.30%	–	–	–	–
O.O.O.O.O=C([O-])[O-].O=C([O-])[O-].O=C([O-])[O-].[La+3].[La+3] [Tetrahydrate, lanthanum carbonate tetrahydrate]	64.05%	73.64%	87.20%	81.21%	82.80%	–	81%	–	–
